This test relates to bladder cancer cell line TSGH-8301. As to the kind of experiment: In vitro survival assay (MTT) for anti-bladder cancer effects. Particulars: TSGH-8301 human bladder carcinoma cells, 48 hours, survival rate. In kind it is cell-based. The procedure:
Inhibiting effects of bladder cancer cells by cyclohexenone compounds of Antrodia camphorata from example 1 were assessed according to the anticancer-drug screening model of National Cancer Institute (NCI). The compound 4-hydroxy-2,3-dimethoxy-6-methyl-5-(3,7,11-trimethyl-dodeca-2,6,10-trienyl)-cyclohex-2-enone from example 1 was added into the culture media of bladder cancer cell line TSGH-8301 to determine the survival rates. Survival of cell was analyzed using MTT assay. TSGH-8301 cell line was a human bladder carcinoma cell line.
MTT assay is commonly used to analyze cell proliferation, survival rate of viable cells and cytotoxicity. MTT (3[4,5-dimethylthiazol-2-yl]-2,5-diphenyltetrazolium bromide) is a yellow dye which can be converted to water-insoluble purple formazan on the reductive cleavage of its tetrazolium ring by the succinate tetrazolium reductase in mitochondria of cells. The amount of formazan produced is used to detect the number of viable cells and calculate the survival rates.
The TSGH-8301 cells were cultivated in DMEM medium supplemented with 10% fetal bovine serum, 100 U/ml of Penicillin and 100 μg/ml of Streptomycin at 37° C., 5% CO2 for 24 hours. Proliferated cells were washed once with PBS, treated with 1× trypsin-EDTA, and centrifuged at 1200 rpm for 5 min. […] The absorbances were measured at 570 nm with an ELISA Reader to determine the survival rates.

As usually defined, the IC50 is the midpoint of a concentration-inhibition curve. Lower therefore signals higher potency. Turning to `COC1=C(OC)C(O)C(C/C=C(\C)CC/C=C(\C)CCC=C(C)C)C(C)C1=O` (stereo not shown) [formula 2, 4-hydroxy-2,3-dimethoxy-6-methyl-5-(3,7,11-trimethyl-dodeca-2,6,10-trienyl)-cyclohex-2-enone], it took 1.05 µg/mL to reach half-maximal inhibition (IC50).

These data come from patent US20140179800A1, “Inhibition of the Survival of Bladder Cancer by Cyclohexenone Compounds from Antrodia Camphorata” (Golden Biotechnology Corporation, priority 2009, published 2014).
